Laboratory results reported in the NIST ThermoML archive (doi:10.1021/acs.jced.7b01004).

Tests used:
[1] = xn = mol fraction of the nth substance listed; conditions: 99.6 kPa, Liquid, x1 = 0.5; for viscosity: Concentric cylinders viscometry; for mass density: Vibrating tube method
[2] = refractive index (Na D-line) (dimensionless); xn = mol fraction of the nth substance listed; conditions: 293.15 K; 99.6 kPa; Liquid; Standard Abbe refractometry; x1 = 0.5

CCCCn1cc[n+](C)c1.CS(=O)(=O)[O-] [1-butyl-3-methylimidazolium methanesulfonate] + NC(N)=O
[1]
Conditions	mass density [kg/m3]	viscosity [mPa·s]
293.15 K	1202.2	1892.9
303.15 K	1195.6	686.69
313.15 K	1189.2	295.72
323.15 K	1182.7	145.85
333.15 K	1176.3	80.41

Conditions	refractive index
[2]	1.493
